According to ChEMBL document CHEMBL4602621, “Optimization of cyclic sulfamide derivatives as 11β-hydroxysteroid dehydrogenase 1 inhibitors for the potential treatment of ischemic brain injury” (Bioorg Med Chem Lett, 2020):
Active and inactive are the calls of the source. The rule behind the calls is not given here.

What was measured:
[1] = Ratio of drug concentration in brain to plasma of mouse at 10 mg/kg, ip administered as single dose measured at 0.5 hrs; assay type: ADME, organism-based; conditions: read-out: BPR
[2] = Drug level in plasma of mouse at 10 mg/kg, ip administered as single dose measured at 0.5 hrs; assay type: ADME, organism-based
[3] = molecular target: 11-beta-hydroxysteroid dehydrogenase 1 (Mus musculus, UniProt P50172); experiment: Inhibition of mouse 11beta-HSD1 expressed in CHOK1 cells using XL665-labeled cortisol as substrate measured after 24 hrs by HTRF assay; assay type: cell-based, CHO-K1
[4] = Drug level in brain of mouse at 10 mg/kg, ip administered as single dose measured at 0.5 hrs; assay type: ADME, organism-based; conditions: read-out: Drug uptake
Mus musculus [5] = experiment: (§1) Neuroprotective activity in mouse model of middle cerebral artery occlusion-induced ischemia-reperfusion injury assessed as cerebral infarct volume at 10 mg/kg, ip administered twice at 1 to 5 hrs post induction of ischemia followed by 24 hrs of reperfusion by TTC staining based assay (reference value: 90.3 +/- 6 mm3); assay type: functional
Mus musculus [6] = experiment: Neuroprotective activity in mouse model of middle cerebral artery occlusion-induced ischemia-reperfusion injury assessed as reduction in cerebral infarct area at 10 to 30 mg/kg, ip administered twice at 1 to 5 hrs post induction of ischemia followed by 24 hrs of reperfusion by TTC staining based assay; assay type: functional, organism-based
[7] = molecular target: 11-beta-hydroxysteroid dehydrogenase 1 (Mus musculus) (UniProt P50172); experiment: In vivo inhibition of 11 beta-HSD1 in brain of mouse at 20 mg/kg, po relative to control; assay type: functional, organism-based
[8] = Drug level in brain of mouse at 10 mg/kg, ip administered as single dose measured at 3 hrs; assay type: ADME, organism-based; conditions: read-out: Drug uptake
[9] = molecular target: 11-beta-hydroxysteroid dehydrogenase 1 (Mus musculus) (UniProt P50172); experiment: Ex vivo inhibition of 11 beta-HSD1 in brain of iv dosed mouse by measuring cortisol amount after 1 hr by ELISA; assay type: functional, organism-based
[10] = Drug level in plasma of mouse at 10 mg/kg, ip administered as single dose measured at 3 hrs; assay type: ADME, organism-based
[11] = molecular target: 11-beta-hydroxysteroid dehydrogenase 1 (Homo sapiens, UniProt P28845); experiment: Inhibition of human 11beta-HSD1 expressed in CHOK1 cells using XL665-labeled cortisol as substrate measured after 24 hrs by HTRF assay; assay type: cell-based, CHO-K1
Mus musculus [12] = experiment: as §1, with “30” for “10”; assay type: functional
[13] = Ratio of drug concentration in brain to plasma of mouse at 10 mg/kg, ip administered as single dose measured at 3 hrs; assay type: ADME, organism-based; conditions: read-out: BPR
[14] = molecular target: 11-beta-hydroxysteroid dehydrogenase 1 (Mus musculus) (UniProt P50172); experiment: In vivo inhibition of 11 beta-HSD1 in brain of mouse at 30 mg/kg, po relative to control; assay type: functional, organism-based

11-beta-hydroxysteroid dehydrogenase 1 (Mus musculus), sequence (P50172 whole entry, looked up): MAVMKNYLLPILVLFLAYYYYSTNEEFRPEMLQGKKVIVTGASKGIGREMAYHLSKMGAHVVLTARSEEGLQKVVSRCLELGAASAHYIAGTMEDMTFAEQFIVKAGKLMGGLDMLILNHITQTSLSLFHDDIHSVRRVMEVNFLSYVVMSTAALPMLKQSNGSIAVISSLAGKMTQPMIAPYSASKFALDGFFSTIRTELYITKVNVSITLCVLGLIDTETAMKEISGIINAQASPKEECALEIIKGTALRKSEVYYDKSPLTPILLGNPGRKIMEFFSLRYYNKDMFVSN
11-beta-hydroxysteroid dehydrogenase 1 (Mus musculus, UniProt P50172), sequence (P50172 whole entry): as the sequence (P50172 whole entry, looked up) above
11-beta-hydroxysteroid dehydrogenase 1 (Homo sapiens, UniProt P28845), sequence (P28845 whole entry): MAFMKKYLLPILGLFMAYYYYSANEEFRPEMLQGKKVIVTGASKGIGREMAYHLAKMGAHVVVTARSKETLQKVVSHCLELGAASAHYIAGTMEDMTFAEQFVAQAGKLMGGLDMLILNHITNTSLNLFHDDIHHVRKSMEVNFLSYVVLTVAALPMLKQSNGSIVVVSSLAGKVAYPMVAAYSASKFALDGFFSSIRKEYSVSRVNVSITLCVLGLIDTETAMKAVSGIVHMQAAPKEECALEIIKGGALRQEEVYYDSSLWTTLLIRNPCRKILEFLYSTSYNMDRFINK

Compound | IC50 [3] | inhibition [7] | further results
CC1CN(CC(=O)NC2C3CC4CC2CC(C(N)=O)(C4)C3)S(=O)(=O)N(c2c(Cl)cc(C(F)(F)F)cc2Cl)C1 (stereo not given) | 1 nM | 82% | Kp at 0.5 h [1]: 0.38; concentration at 0.5 h [2]: 4770 ng/mL; concentration at 0.5 h [4]: 1780 ng/mL; Activity (Mus musculus [5]): 66.2 mm3; Activity (Mus musculus [6]): Active; concentration at 3 h [8]: 670 ng/mL; inhibition [9]: Dose-dependent effect; concentration at 3 h [10]: 1310 ng/mL; IC50 [11]: 1 nM; Activity (Mus musculus [12]): 59 mm3; Kp at 3 h [13]: 0.53
CC1CN(CC(=O)NC2C3CC4CC2CC(C(N)=O)(C4)C3)S(=O)(=O)N(c2ccc(C(F)(F)F)cn2)C1 (stereo not given) | 940 nM |  | 
CCC1CN(CC(=O)NC2C3CC4CC2CC(C(N)=O)(C4)C3)S(=O)(=O)N(c2c(Cl)cc(C(F)(F)F)cc2Cl)C1 (stereo not given) | 695 nM |  | 
Cc1cc(Cl)c(N2CC(C)CN(CC(=O)NC3C4CC5CC3CC(C(N)=O)(C5)C4)S2(=O)=O)c(Cl)c1 (stereo not given) | 3.7 nM | 69% | 
CC(C)C1CN(CC(=O)NC2C3CC4CC2CC(C(N)=O)(C4)C3)S(=O)(=O)N(c2c(Cl)cc(C(F)(F)F)cc2Cl)C1 (stereo not given) | 2800 nM |  | 
CC1CN(CC(=O)NC2C3CC4CC2CC(C(N)=O)(C4)C3)S(=O)(=O)N(c2c(Cl)cc(Cl)cc2Cl)C1 (stereo not given) | 2 nM |  | inhibition [14]: 66%
CC1CN(CC(=O)NC2C3CC4CC2CC(C(N)=O)(C4)C3)S(=O)(=O)N(c2c(Cl)cc(-c3ccccc3)cc2Cl)C1 (stereo not given) | 174 nM |  | 
CC1CN(CC(=O)NC2C3CC4CC2CC(C(N)=O)(C4)C3)S(=O)(=O)N(c2ccccn2)C1 (stereo not given) | 1210 nM |  | 
NC(=O)C12CC3CC(C1)C(NC(=O)CN1CCCN(c4c(Cl)cc(C(F)(F)F)cc4Cl)S1(=O)=O)C(C3)C2 (stereo not given) |  | 45.8% | 
CC1CN(CC(=O)NC2C3CC4CC2CC(C(N)=O)(C4)C3)S(=O)(=O)N(c2c(Cl)cc(-c3ccco3)cc2Cl)C1 (stereo not given) | 68 nM |  | 
CC1CN(CC(=O)NC2C3CC4CC2CC(C(N)=O)(C4)C3)S(=O)(=O)N(c2c(Cl)cc(Br)cc2Cl)C1 (stereo not given) |  | 41.1% | 
